Experimental data published in ChEMBL document CHEMBL5380857, “Discovery of Potent, Selective, and Orally Bioavailable Small-Molecule Inhibitors of CDK8 for the Treatment of Cancer” (J Med Chem, 2023).
pIC50, pKd: −log10 of the molar value.

Key:
[1] = system: MV4-11; test: Antiproliferative activity against human MV4-11 cells assessed as inhibition of cell growth incubated for 10 days and replacement with fresh media with compounds on day 5 by CTG assay; type: functional, cell-based
[2] = molecular target: Dual specificity protein kinase CLK1 (Homo sapiens, UniProt P49759); test: Binding affinity to CLK1 (unknown origin) assessed as dissociation constant by competitive binding assay
[3] = Half life in CD-1 mouse at 5 mg/kg, po or 1 mg/kg, iv administered as single dose and measured for 24 hrs by LC-MS/MS analysis; type: ADME, organism-based; conditions: in vivo
[4] = molecular target: T1, Cytochrome P450 1A2 (Homo sapiens, UniProt P05177); test: Inhibition of CYP1A2 in human liver microsomes using phenacetin as substrate assessed as reduction in substrate O-deethylation incubated for 10 mins in presence of NADPH by LC-MS/MS analysis; type: ADME, Microsome
T1 sequence (P05177 whole entry): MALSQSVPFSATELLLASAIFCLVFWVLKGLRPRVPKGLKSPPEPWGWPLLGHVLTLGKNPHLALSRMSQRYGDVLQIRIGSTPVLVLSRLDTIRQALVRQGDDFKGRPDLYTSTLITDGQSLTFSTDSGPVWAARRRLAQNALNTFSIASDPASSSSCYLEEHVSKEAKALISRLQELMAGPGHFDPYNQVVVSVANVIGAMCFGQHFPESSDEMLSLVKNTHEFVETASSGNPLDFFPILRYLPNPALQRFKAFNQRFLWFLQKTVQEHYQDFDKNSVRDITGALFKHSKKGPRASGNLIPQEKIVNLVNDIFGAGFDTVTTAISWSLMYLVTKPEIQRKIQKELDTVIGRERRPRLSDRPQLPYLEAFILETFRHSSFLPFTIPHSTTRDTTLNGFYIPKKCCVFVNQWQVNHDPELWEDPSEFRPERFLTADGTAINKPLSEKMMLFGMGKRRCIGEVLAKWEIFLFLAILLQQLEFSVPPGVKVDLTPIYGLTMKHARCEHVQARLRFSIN

Dual specificity protein kinase CLK1, sequence (P49759 whole entry): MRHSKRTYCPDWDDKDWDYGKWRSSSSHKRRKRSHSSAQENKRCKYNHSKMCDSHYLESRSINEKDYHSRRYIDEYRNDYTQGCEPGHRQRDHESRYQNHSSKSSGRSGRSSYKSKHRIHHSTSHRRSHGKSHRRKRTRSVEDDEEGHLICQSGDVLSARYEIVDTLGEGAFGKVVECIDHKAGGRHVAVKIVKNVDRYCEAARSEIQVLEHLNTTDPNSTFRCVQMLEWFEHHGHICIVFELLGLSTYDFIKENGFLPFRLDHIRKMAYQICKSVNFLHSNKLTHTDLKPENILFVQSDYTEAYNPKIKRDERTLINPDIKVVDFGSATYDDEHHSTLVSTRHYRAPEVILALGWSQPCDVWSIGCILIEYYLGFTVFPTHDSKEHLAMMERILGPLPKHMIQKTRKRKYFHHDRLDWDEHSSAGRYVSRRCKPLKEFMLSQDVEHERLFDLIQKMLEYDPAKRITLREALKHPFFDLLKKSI

pIC50 [1]: 7.93
pKd [2]: 7.05
half-life [3]: 3.8 h
pIC50 [4]: < 4.30
Compound: Cc1n[nH]c2ccc(-c3nnc(C)n3Cc3ccc(C(F)(F)F)cc3)cc12
